Experimental data: publication PMC8658016, “Identification of New Compounds with Anticonvulsant and Antinociceptive Properties in a Group of 3-substituted (2,5-dioxo-pyrrolidin-1-yl)(phenyl)-Acetamides” (International Journal of Molecular Sciences, 2021)
Where two headings read alike, the source gives them in different places.

How the values were obtained:
[1] = system: mice; test: Formalin test (tonic pain); type: in vivo; details: Mus musculus, ip, mice i.p.
Protocol: The formalin test is a commonly used model of pain also useful in screening the analgesic activity of novel compounds. A subcutaneous formalin injection results in a biphasic nociceptive response; a phase one (5 min) followed by a quiescent period (10 min) and then phase two (15 min). C-fibers’ initial and direct stimulation in phase one led to peripheral inflammation accompanied by ongoing peripheral nerve activity and central sensitization during phase two. Moreover, a formalin injection induces persistent changes similar to those observed in nerve injury and subsequent neuropathic pain [27].
The experiments were conducted on adult male Albino Swiss mice (CD-1, 18–25 g) and male Wistar rats (Krf:(WI) WU), 180–250 g) as described previously. The minimum number of animals used needed to obtain definite and normally distributed results with the utilized test. Behavioral measures were scored by trained observers, which were blind to experimental conditions. […]
Data were presented as means ± standard error of the mean (S.E.M). […] Statistically significant differences between groups were calculated using one-way analysis of variance (ANOVA) and the post hoc Dunnett’s multiple comparison test or two-way analysis of variance (ANOVA) and the post hoc Tukey’s comparison when appropriate. […]

[2] = target: T1, CYP2D6 (Homo sapiens, UniProt P10635); test: CYP2D6 P450-Glo luminescent assay; type: in vitro ADME; details: 1 and 10 µM
T1 construct: purchased Promega (Madison, WI, USA)
T1 sequence (P10635 whole entry): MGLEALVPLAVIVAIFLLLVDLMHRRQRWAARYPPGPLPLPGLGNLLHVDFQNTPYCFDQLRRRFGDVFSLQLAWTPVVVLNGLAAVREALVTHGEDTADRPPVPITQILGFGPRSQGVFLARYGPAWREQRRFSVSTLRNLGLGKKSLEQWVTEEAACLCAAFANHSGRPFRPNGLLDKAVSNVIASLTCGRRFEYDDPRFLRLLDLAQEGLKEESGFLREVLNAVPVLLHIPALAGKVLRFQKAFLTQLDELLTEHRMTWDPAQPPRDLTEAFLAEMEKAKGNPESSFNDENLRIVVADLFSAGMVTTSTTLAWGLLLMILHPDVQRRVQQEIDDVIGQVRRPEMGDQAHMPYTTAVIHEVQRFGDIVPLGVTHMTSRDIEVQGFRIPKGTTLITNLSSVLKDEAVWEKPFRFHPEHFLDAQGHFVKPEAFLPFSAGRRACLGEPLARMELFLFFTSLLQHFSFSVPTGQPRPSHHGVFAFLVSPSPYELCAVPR

[3] = system: fast voltage-gated sodium currents in rat prefrontal cortex pyramidal neurons; test: Patch-clamp, fast voltage-gated sodium currents; type: cell-based
Source text: Consequently, we determined the influence of compound 14 on the fast activating and fast inactivating voltage-gated sodium currents in rat prefrontal cortex pyramidal neurons using the patch-clamp technique. Maximal currents were evoked by rectangular voltage steps to 0 mV from a physiological holding potential of -65 mV. After recording a stable control, compound 14 was applied to the whole bath for three minutes. […] Therefore, it was very likely that the potent inhibition of sodium currents by compound 14 similar to compound II was one of the mechanisms providing a similar level of anticonvulsant activity. Moreover, the influence of several additional concentrations of compound 14 on voltage-gated sodium currents were tested to confirm the dose–response relationship. In sum, the following concentrations were applied; 0.01 µM, 0.1 µM, 1 µM, 10 µM, and the results obtained were as follows: 0.95 ± 0.05 (p > 0.05, n = 5), 0.84 ± 0.03 (p < 0.05, n = 5), 0.82 ± 0.05 (p < 0.01, n = 5), and 0.77 ± 0.02 (p < 0.01, n = 5), respectively (Figure 9D, currents were normalized to control currents). It is worthy of note that the significant inhibitory effect was observed starting from the concentration of 0.1 µM, whereas no activity was detected at 0.01 µM. Furthermore, a clear dose–response relationship was visible. All the aforementioned results certainly supporting the inhibition of fast voltage-gated sodium currents, seemed to be crucial for the antiseizure activity of compound 14. The methodology of slice preparation, slice preincubation, and patch-clamp technique was the same as in our previous study. In this study, however, we used different recording solutions. The composition of pipette solution was (in mM) CsF (110), NaCl (7), EGTA (3), HEPES-Cl (10), MgCl2 (2), and Na2ATP (4) at pH 7,4. The composition of extracellular solution was (in mM) NaCl (30), choline chloride (90), TEA-Cl (30), CaCl2 (2), MgCl2 (2), glucose (15), HEPES (10), LaCl3 (0.001), and CdCl2 (0.4) at pH 7.4. Compound 14 was tested at concentration of 1 µM.  Figure 9 The influence of compound 14 on fast, voltage-gated sodium current. (A) The influence of tested compound on sodium current is shown on an example neuron. Current traces were evoked once every ten seconds by a rectangular voltage step. […] (B) Example sodium current recordings in control (black trace), after application of compound 14 (1 µM) (blue trace) and after wash-out (red trace). (C) Averaged normalized maximal current amplitudes in control, in the presence of compound 14 (1 µM) and after wash-out. (D) Averaged normalized maximal current amplitudes in control and in the presence of different concentrations of compound 14 (0.01 µM, 0.1 µM, 1 µM, and 10 µM). Statistical significance was analyzed by Graph Pad Prism 8.0.1 software using Tukey post hoc test (C) and Students’ t-test (D). Statistical significance-compared control: * p < 0.05, ** p < 0.01.

CN(C)C1CC(=O)N(C(C(=O)N2CCN(c3cccc(C(F)(F)F)c3)CC2)c2ccccc2)C1=O.Cl (centres unmarked) [Compound 14, 3-(Dimethylamino)-1-(2-oxo-1-phenyl-2-(4-(3-(trifluoromethyl)phenyl)-piperazin-1-yl)ethyl)pyrrolidine-2,5-dione hydrochloride]
ED50 ([1]; 0–5 min after formalin, read-out: ED50 formalin test, phase I): 85.1 mg/kg
ED50 ([1]; 15–30 min after formalin, read-out: ED50 formalin test, phase II): 56.1 mg/kg
effect on CYP2D6 activity [2]: significant activation
maximal sodium current amplitude normalized to control (1.0) ([3]; 0.01 µM, p > 0.05, n = 5): 0.95 ± 0.05
maximal sodium current amplitude normalized to control (1.0) ([3]; 0.1 µM, p < 0.05, n = 5): 0.84 ± 0.03
maximal sodium current amplitude normalized to control (1.0) ([3]; 1 µM, p < 0.01, n = 5): 0.82 ± 0.05
maximal sodium current amplitude normalized to control (1.0) ([3]; 10 µM, p < 0.01, n = 5): 0.77 ± 0.02
maximal sodium current amplitude normalized to control, after drug wash-out ([3]; after application of 1 µM): 0.92 ± 0.02
